For experiment [1], the target named is 5-HT1 receptor. The experiment can be described thus: Contraction of the vena saphena isolated from rabbits. On the set-up: species or system rabbit. Conditions: % of maximum effect induced by KCl, after phenoxybenzamine, cumulative doses 10^-9 to 10^-4 M, read-out: 50% effective concentration (EC50). On the procedure:
(§1) Contraction of the vena saphena
(§2) Experiments are carried out on venae saphenae of dogs (10-25kg) or rabbits (2-3 kg) anesthetized with pentobarbital (30 mg/kg i.v.). The venae saphenae are rapidly removed and cut into rings. These rings are mounted between two hooks in tanks thermostatically controlled at 37° C. containing physiological solution (composition in mM: NaCl118.3; KCl 4.7; CaCl2 2.5; MgSO4 1.2; KH2 PO4 1.2; NaHCO3 25.0; Ca-EDTA 0.026 and glucose 11.1). A mixture of 95% O2 /5% CO2 is bubbled through the physiological solution. The lower hook constitutes the fixed point whereas the upper hook is connected to an isometric force sensor. The tissues are put under a base tension of 1.5 grams (dogs) and 1 gram (rabbits). The pharmacological substances studied are prepared immediately before use; they are dissolved in water or in dimethyl sulfoxide.
(§3) After mounting, the preparations are left standing for 60 minutes, rinsings being carried out every 30 minutes. The organ is then brought into contact with phenoxybenzamine (5×10^-8 M) for 20 minutes. This agent is removed by several successive washings over 45 minutes. After readjusting the base tension, a contraction is caused by KCl (100 mM).

Experiment [2] addresses T1, 5-HT1 receptor (Canis lupus familiaris, UniProt P79250).
T1 construct: The venae saphenae are rapidly removed and cut into rings; from tissue; host or cells: dog saphenous vein rings
As to the kind of experiment: Contraction of the vena saphena isolated from dogs. On the set-up: species or system dog. Conditions: % of maximum effect induced by KCl, after phenoxybenzamine, cumulative doses 10^-9 to 10^-4 M, read-out: 50% effective concentration (EC50). On the procedure:
as §1, §2, §3

Where a name gives a salt, the structure may show the parent alone.

T1 sequence (P79250 whole entry): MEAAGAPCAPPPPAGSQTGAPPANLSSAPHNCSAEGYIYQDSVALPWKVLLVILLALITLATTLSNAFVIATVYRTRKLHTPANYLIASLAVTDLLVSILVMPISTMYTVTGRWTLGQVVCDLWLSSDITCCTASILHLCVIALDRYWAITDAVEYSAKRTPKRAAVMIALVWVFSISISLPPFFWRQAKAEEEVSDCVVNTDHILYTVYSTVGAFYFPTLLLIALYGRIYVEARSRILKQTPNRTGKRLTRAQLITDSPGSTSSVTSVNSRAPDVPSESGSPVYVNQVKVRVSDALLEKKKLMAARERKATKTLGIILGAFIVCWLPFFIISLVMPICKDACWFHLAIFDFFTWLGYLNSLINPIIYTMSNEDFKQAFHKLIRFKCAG

`CCCN1CCC(Cc2c[nH]c3ccc(C(N)=O)cc23)C1` (centres unmarked) [Example 17, 3-[(1-Propylpyrrolidin-3-yl)methyl]-5-aminocarbonylindole, oxalate]: the values for the EC50 on 5-HT1 receptor [1] and on 5-HT1 receptor [2] were 410 nM and 340 nM, respectively.

These data come from patent publication US5348968A, “Indole, indazole and benzisoxazole compounds” (Adir et Compagnie, priority 1993, dated 1994).
